In patent US20020173468A1, “MODIFIED CYTOSTATIC AGENTS” (priority 1996, published 2002):
Values joined by “and” are separate entries in the source; they are usually repeats but may differ in a detail not shown here. Identical values can stand only once.

Key:
[1] = test system: SW 480 human colonic tumour cell line; assay: Growth inhibition test (MTT) for cytotoxic properties, SW 480; format: cell-based; conditions: SW 480 cells
Experimental: (§1) 1. Growth Inhibition Test for the Determination of Cytotoxic Properties
(§2) They were then trypsinized and taken up in RPMI plus 10% FCS to give a cell count of 50,000 cells/ml. 100 μl of cell suspension/well were added to a 96 microwell plate and incubated for 1 day at 37° C. in a CO2 incubator. A further 100 μl of RPMI medium and 1 μl of DMSO were then added with the test substances. The growth was checked after day 3 and day 6. To do this, 40 μl of MTT solution (3-(4,5-dimethylthiazol-2-yl)-2,5-diphenyl-tetrazolin bromide) were added to each microwell at a starting concentration of 5 mg/ml of H2O. Incubation was carried out at 37° C. for 5 hours in the CO2 incubator. The medium was then aspirated and 100 μl of i-propanol/well were added. After shaking for 30 min with 100 μl of H2O, the extinction was measured at 540 nm using a Titertek Multiskan MCC/340 (flow).
(§3) The cytotoxic action is indicated in Table 1 as an IC50 value in each case for the SW 480 and HT 29 and B16F10 cell lines: […]

[2] = test system: mouse bone marrow stem cells; assay: Inhibition of the CSF-induced proliferation of mouse bone marrow stem cells (colony formation); format: cell-based; conditions: recombinant murine GM-CSF, 7 days
Experimental: 2. Haematopoietic Activity of Conjugates in Comparison with the Basic Active Compound
Bone marrow cells were rinsed from mouse femurs. 10^5 cells were incubated in McCoy 5A medium (0.3% agar) together with recombinant murine GM-CSF (Genzyme; stem cell colony formation) and the substances (10^−4 to 100 μg/ml) at 37° C. and 7% CO2. 7 days later, the colonies ([…]50 cells) and clusters (17-50 cells) were counted.

[3] = test system: HT 29 human colonic tumour cell line; assay: Growth inhibition test (MTT) for cytotoxic properties, HT 29; format: cell-based; conditions: HT 29 cells
Experimental: as §1, §2, §3

[4] = test system: large-cell human lung tumour xenograft LXFL 529; assay: In-vivo inhibition of tumour growth in the nude mouse model; parameters: species or system athymic nude mice (NMRI nu/nu strain); conditions: for Relative tumour volume on day 21: control 1137; for Survival time: individual animals
Source text: 3. In-vivo Inhibition of Tumour Growth in the Nude Mouse Model
For all in-vivo experiments for investigation of the inhibition of tumour growth, athymic nude mice (NMRI nu/nu strain) were used. The selected large-cell lung carcinoma LXFL 529 was developed by serial passage in nude mice. The human origin of the tumour was confirmed by isoenzymatic and immunohistochemical methods.
The tumour was implanted subcutaneously in both flanks of nu/nu nude mice 6 to 8 weeks old. The treatment was started, depending on the doubling time, as soon as the tumours had reached a diameter of 5-7 mm. The mice were assigned to the treatment group and to the control group (5 mice per group with 8-10 assessable tumours) by randomization. The individual tumours of the control group all grew progressively.
The size of the tumours was measured in two dimensions by means of a slide gauge. The tumour volume, which correlated well with the cell count, was then used for all evaluations. The volume was calculated according to the formula “length×breadth×breadth/2” ([a×b^2]/2, a and b represent two diameters arranged at right angles).
The values of the relative tumour volume (RTV) were calculated for each individual tumour by dividing the tumour size on day X by the tumour size on day 0 (at the time of randomization). The mean values of the RTV were then used for further evaluation.
The inhibition of the increase in the tumour volume (tumour volume of the test group/control group, T/C, in per cent) was the final measured value.
The administration of the compounds was carried out intraperitoneally (i.p.) on days 1, 2 and 3 after randomization.

[5] = test system: B16F10 mouse melanoma cell line; assay: Growth inhibition test (MTT) for cytotoxic properties, B16F10; format: cell-based; conditions: B16F10 cells
Experimental: as §1, §2, §3

[6] = 6.25 mg/kg/day (MTD) i.p. days 1-3

## CC[C@@]1(OC(=O)[C@@H](NC(=O)[C@H](CCCCN)NC(=S)Nc2ccc(O)cc2)C(C)C)C(=O)OCc2c1cc1n(c2=O)Cc2cc3ccccc3nc2-1.Cl [Example 4.4), 20-O-[N^α-(4-Hydroxy-phenylamino-thiocarbonyl)-lysyl-valyl]-camptothecin, hydrochloride]
[1]
  IC50: 300 nM
[2]
  IC50, inhibition of the CSF-induced proliferation of mouse bone marrow stem cells: 0.01 µg/mL
[3]
  IC50: 200 nM
[4]; 3.125 mg/kg/day i.p. days 1-3
  Relative body weight on day 21: 105.8 % of day 0
  Relative tumour volume on day 21: 69.5 % of day 0
  Survival time: >43 >43 days
[4]; [6]
  Relative body weight on day 21: 113.0 % of day 0
  Relative tumour volume on day 21: 0.2 % of day 0
[4]; 6.25 mg/kg/day (MTD) i.p. days 1-3, hydrochloride
  Survival time: 7 days and > 43 days and >43 >43 days
[4]; i.p. on days 1, 2 and 3, nude mice
  Maximum tolerable dose (MTD): 6.25 mg/kg/day
[4]; therapy at the MTD and at half the MTD
  Therapeutic efficacy against LXFL 529 xenograft (in words): tumour remission
[5]
  IC50: 600 nM
